From ChEMBL document CHEMBL5104130, “Synthesis of a tricyclic hexapeptide -via two consecutive ruthenium-catalyzed macrocyclization steps- with a constrained topology to mimic vancomycin's binding properties toward D-Ala-D-Ala dipeptide” (2022)
≈ marks a conversion by molar mass, not a printed value.

System: Staphylococcus aureus
Assay: Antibacterial activity against vancomycin-sensitive Staphylococcus aureus ATCC 49320 assessed as inhibition of bacterial growth incubated for 24 hrs
Type: functional

MIC: 37.5 µg/mL (≈ 40.8 µM)
SMILES: CN[C@H](CC(C)C)C(=O)N[C@@H]1CCCCn2nncc2-c2cc3cc(c2OC)-c2cnnn2CCCC[C@@H]2NC(=O)[C@@H](C/C=C/Cc4ccccc4NC2=O)NC(=O)[C@@H]3NC(=O)[C@H](C)NC1=O
